{"source": "patent US7652071B2", "about": "“Penetration of active substances into cells and organs” (Alpha-Biocare GmbH, priority 2003, dated 2010)", "tested_on": "Angiostrongylus cantonensis", "assay": "Detection of worm stages in the brain of Wistar rats experimentally infected with Angiostrongylus cantonensis after oral treatment", "type": "in vivo", "experimental": "Each rat was infected with precisely 60 L3 larvae. From day 5 post-infection onwards, mebendazole was administered once daily on three successive days at the dosage rates and in the formulations stated. The worms were detected on day 21 post-infection.", "data": [{"smiles": "COC(=O)Nc1nc2ccc(C(=O)c3ccccc3)cc2[nH]1", "note": "[Mebendazole, mebendazole]", "values": [{"measurement": "Worm detection in the brain", "setting": "aqueous suspension, mebendazole 10 mg/kg body weight oral, once daily on three successive days from day 5 post-infection, worms detected day 21, % of infection control (55 worms = 100%)", "value": 98.2, "unit": "%"}, {"measurement": "Worm reduction in the brain", "setting": "mebendazole with the aid of the carrier system, at a more than 30-fold reduced mebendazole dose", "value": "significant worm reduction in the brain"}]}]}
